The values that follow come from patent US10626081B2, “Farnesoid X receptor agonists and uses thereof” (Metacrine, Inc., priority 2015, dated 2020).

Experiment [1] addresses T1, FXR (Homo sapiens, UniProt Q96RI1).
T1 construct: expressed in transfected cells; host or cells: CV-1 cells
T1 sequence (Q96RI1 1-486): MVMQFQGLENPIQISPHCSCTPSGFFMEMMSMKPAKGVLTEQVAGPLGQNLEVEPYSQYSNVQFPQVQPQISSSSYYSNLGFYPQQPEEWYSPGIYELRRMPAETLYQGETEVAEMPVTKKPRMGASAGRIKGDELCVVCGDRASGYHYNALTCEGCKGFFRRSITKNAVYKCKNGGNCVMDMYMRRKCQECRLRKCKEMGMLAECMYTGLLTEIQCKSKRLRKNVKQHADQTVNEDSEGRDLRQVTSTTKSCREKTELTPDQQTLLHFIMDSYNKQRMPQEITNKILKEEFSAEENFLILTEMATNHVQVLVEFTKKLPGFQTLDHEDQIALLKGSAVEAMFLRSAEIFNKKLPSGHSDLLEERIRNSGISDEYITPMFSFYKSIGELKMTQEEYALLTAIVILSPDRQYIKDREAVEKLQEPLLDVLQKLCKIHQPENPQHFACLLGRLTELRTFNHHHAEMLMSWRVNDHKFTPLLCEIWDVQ
T1 sequence (P19793 1-462 partner): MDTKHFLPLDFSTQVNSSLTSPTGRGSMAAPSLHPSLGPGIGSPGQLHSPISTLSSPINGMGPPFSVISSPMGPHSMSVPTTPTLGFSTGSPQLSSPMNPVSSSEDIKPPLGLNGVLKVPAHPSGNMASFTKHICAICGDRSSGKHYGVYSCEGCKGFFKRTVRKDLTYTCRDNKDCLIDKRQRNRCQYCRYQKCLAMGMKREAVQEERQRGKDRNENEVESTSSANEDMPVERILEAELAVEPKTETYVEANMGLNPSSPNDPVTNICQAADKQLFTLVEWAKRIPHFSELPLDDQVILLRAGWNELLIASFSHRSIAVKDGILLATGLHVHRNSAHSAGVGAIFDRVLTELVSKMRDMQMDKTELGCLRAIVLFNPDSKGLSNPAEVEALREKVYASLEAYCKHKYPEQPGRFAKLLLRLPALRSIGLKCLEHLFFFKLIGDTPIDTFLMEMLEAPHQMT
Briefly: In Vitro FXR Assay (PGL3): luciferase reporter in transfected CV-1 cells. The conditions noted are these: CV-1 cells transfected with hFXR, hRXR, PGL3-ECRE*6-luc; 18 h incubation; luminescence. Type of experiment: cell-based. An outline of the steps: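 CV-1 cells in charcoal-stripped FBS were transiently co-transfected with full-length human FXR, RXR, an ECRE×6-luciferase reporter, β-gal and YFP plasmids. Transfected cells were reseeded onto half-log compound dilutions and incubated 18 h. Luciferase luminescence was read after lysis, and EC50 was determined.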
A general note: Reporter assays use an easily measured gene product as a stand-in for the process of interest.

Experiment [2] has as its target T1, FXR. In words: In Vitro FXR Assay (TK): TK-ECRE-luc reporter in transfected CV-1 cells. Type of experiment: cell-based. Conditions: CV-1 cells transfected with hFXR, hRXR, 18 h incubation, luminescence. An outline of the steps: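 CV-1 cells in charcoal-stripped FBS medium were transiently cotransfected with hFXR, hRXR, TK-ECRE-luc and pCMX-YFP plasmids. After 18 h, compounds serially diluted in DMSO were added for 18 h at 37 °C, 5% CO2, then cells were lysed and luminescence read.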

For `CN(C)c1ccc(-c2ccc(CN(c3cccc(/C=C/C(=O)O)c3)C(=O)[C@H]3CC[C@H](O)CC3)cc2)cc1` [compound 89, (E)-3-(3-((1s,4s)-N-((4′-(Dimethylamino)-[1,1′-biphenyl]-4-yl)methyl)-4-hydroxycyclohexane-carboxamido)phenyl) acrylic acid], in experiment [1], the “Cmpd/Fex (ratio of the EC50 for the test compound relative to the EC50 of the Fexaramine control)” value was “+ (‘+’ means Cmpd/Fex > 100)”. For the same molecule, the EC50 (in general, the midpoint of the concentration-response curve) in experiment [2] was more than 10 µM.
For the molecule `COC(=O)CCc1cc(C)cc(N(Cc2ccc(-c3ccc(N(C)C)cc3)cc2)C(=O)C2CCCCC2)c1` [compound 90, Methyl 3-(3-(N-((4′-(dimethylamino)-[1,1′-biphenyl]-4-yl)methyl)cyclohexanecarboxamido)-5-methylphenyl)propanoate], the “Cmpd/Fex (ratio of the EC50 for the test compound relative to the EC50 of the Fexaramine control)” value in experiment [1] is “+++ (‘+++’ means Cmpd/Fex < 10)”. In experiment [2], the EC50 lay within 1 to 10 µM.
For the molecule `COC(=O)CCc1cc(N(Cc2ccc(-c3ccc(N(C)C)cc3)cc2)C(=O)C2CCCCC2)ccc1C` [compound 91, Methyl 3-(5-(N-((4′-(dimethylamino)-[1,1′-biphenyl]-4-yl)methyl)cyclohexanecarboxamido)-2-methylphenyl)propanoate], in experiment [1], the “Cmpd/Fex (ratio of the EC50 for the test compound relative to the EC50 of the Fexaramine control)” value is “+ (‘+’ means Cmpd/Fex > 100)”. Besides, the EC50 in experiment [2] was more than 10 µM.
With `COC(=O)CCc1cccc(N(Cc2ccc(-c3ccc(N(C)C)cc3)cc2)C(=O)C2CCCCC2)c1C` [compound 92, Methyl 3-(3-(N-((4′-(dimethylamino)-[1,1′-biphenyl]-4-yl)methyl)cyclohexanecarboxamido)-2-methylphenyl)propanoate], the “Cmpd/Fex (ratio of the EC50 for the test compound relative to the EC50 of the Fexaramine control)” value in experiment [1] was “+ (‘+’ means Cmpd/Fex > 100)”. In addition, the EC50 in experiment [2] was 1 to 10 µM.
On to `COC(=O)CCc1ccc(C)c(N(Cc2ccc(-c3ccc(N(C)C)cc3)cc2)C(=O)C2CCCCC2)c1` [compound 93, Methyl 3-(3-(N-((4′-(dimethylamino)-[1,1′-biphenyl]-4-yl)methyl)cyclohexanecarboxamido)-4-methylphenyl)propanoate], for which the “Cmpd/Fex (ratio of the EC50 for the test compound relative to the EC50 of the Fexaramine control)” value in experiment [1] was “++ (‘++’ means Cmpd/Fex > 10 & < 100)”. The molecule further yielded an EC50 in experiment [2] of more than 10 µM.
On to `COC(=O)CC(C)c1cccc(N(Cc2ccc(-c3ccc(N(C)C)cc3)cc2)C(=O)C2CCCCC2)c1` (centres unmarked) [compound 94, Methyl 3-(3-(N-((4′-(dimethylamino)-[1,1′-biphenyl]-4-yl)methyl)cyclohexanecarboxamido)phenyl) butanoate], for which, in experiment [1], the “Cmpd/Fex (ratio of the EC50 for the test compound relative to the EC50 of the Fexaramine control)” value is reported as “++ (‘++’ means Cmpd/Fex > 10 & < 100)”. Moreover, the EC50 in experiment [2] is 1 to 10 µM.
For `COC(=O)C(C)Cc1cccc(N(Cc2ccc(-c3ccc(N(C)C)cc3)cc2)C(=O)C2CCCCC2)c1` (centres unmarked) [compound 95, Methyl 3-(3-(N-((4′-(dimethylamino)-[1,1′-biphenyl]-4-yl)methyl)cyclohexanecarboxamido)phenyl)-2-methylpropanoate] the same measures were “++ (‘++’ means Cmpd/Fex > 10 & < 100)” and 1 to 10 µM.
